Measurements as given in patent US5208243A, “5-isoquinolinesulfonamides” (Adir et Compagnie, priority 1991, dated 1993).

Assays:
[1] = test system: smooth muscle cells of the aorta; assay: Proliferation rate after endothelial denudation of the aorta (3H-thymidine incorporation); format: in vivo, WISTAR rat; conditions: 10 mg/kg orally, daily
Procedure: D/ Effect of the compounds of the invention on the proliferation rate after endothelial denudation. […] After pretreatment for 6 days (J6), denudation of the aortic endothelium of the animals is performed according to the following method: After anesthetizing the animal with methohexital (Brietal, 60 mg/kg intraperitoneally), an embolectomy probe (Fogarty 2F) is introduced into the aorta through the left carotid. Aortic deendothelialization is achieved by three successive passages of the probe. Three days after the endothelial denudation (J9), the rats are sacrificed and the aorta is removed, incubated in a physiological solution for 1 hour at 37° C., and then transferred into a ^3 H-thymidine-enriched Krebs- Henseleit solution (specific activity: […]) for 1 hour at 37° C. This is followed by a one-hour post-incubation in a Krebs-Henseleit solution lacking ^3 H-thymidine. After washing in a Tris-EDTA buffer, the proliferation rate is calculated from the incorporation of 3H-thymidine. [drawing 17]

guinea pig left auricle = assay: Ouabain intoxication of guinea pig left auricle; conditions: compound 10^-5 M
isolated heart = assay: Isolated heart subjected to hypoxia-reoxygenation; design: species or system WISTAR rat; conditions: after 30 minutes of reoxygenation
Procedure: The heart is removed from WISTAR rats (325-375 g). The heart is rapidly perfused according to the technique of LANGENDORFF at a constant pressure of 101.310^2 Pa and electrically stimulated at 5 Hz. Isovolumetric contractions are recorded by means of a polyethylene ballonet linked to a pressure sensor (P23-GOULD) introduced into the left ventricle and inflated so as to obtain a diastolic pressure of between 6.710^2 and 13.310^2 Pa. c) Protective effect of the compounds of the invention on an isolated heart subjected to hypoxia-reoxygenation. An experimental procedure similar to that described in the preceding test is followed, the ischemia-reperfusion stage being replaced by a 60 min hypoxia produced by the administration of a 95% N2 +5% CO2 gaseous mixture during this period and followed by a 30 min reoxygenation. The test compounds are incubated for 15 min before and during the period of hypoxia.

rabbit aorta [2] = assay: Contraction of rabbit aorta induced by noradrenaline in a normal physiological medium; design: species or system New Zealand rabbit; conditions: Oryctolagus cuniculus, noradrenaline 10^-6 M, read-out: IC50, noradrenaline stimulus
Procedure: (§1) Studies are carried out on rings, 3 mm in length, […] The vascular rings are immersed in a normal physiological solution or in a physiological solution lacking calcium (+0.2 mM of the chelating agent EGTA), which is thermostatically regulated at 37° C. and aerated with a 95% O2 +5% CO2 mixture. The rings are linked to a STATHAM tension sensor (UC2-GOULD). The optimal tension for each vessel is applied and a stabilization period of 90 min is observed for the preparations. a) Antivasoconstrictive activity of the compounds of the invention in a physiological medium.

rabbit aorta [3] = assay: Contraction of rabbit aorta induced by endothelin in a medium without calcium; design: species or system New Zealand rabbit; conditions: Oryctolagus cuniculus, 10^-5 M, medium lacking calcium
Procedure: as §1, with “b)” for “a)”, “medium without calcium.” for “physiological medium.”

rabbit mesenteric artery = assay: Contraction of rabbit mesenteric artery induced by electrical stimulation; design: species or system New Zealand rabbit; conditions: Oryctolagus cuniculus, normal physiological medium
Procedure: as §1

rabbit aortas = assay: Contraction of rabbit aortas induced by noradrenaline in a medium without calcium; design: species or system New Zealand rabbit; conditions: Oryctolagus cuniculus, 0.5 h, rabbit aorta, incubated 30 minutes
Procedure: as §1, with “b)” for “a)”, “medium without calcium.” for “physiological medium.”

reperfusion arrhythmias = assay: Reperfusion arrhythmias after coronary ligature in rats; format: in vivo, WISTAR rat; conditions: 2 mg/kg intravenous
Procedure: C/ Action of the compounds of the invention on reperfusion arrhythmias.
A thoracotomy and a coronary ligature are carried out on WISTAR rats. After stabilization for 10 min, 2 mg/kg of the test compound are administered intravenously. The blood pressure, the heart rate and the electrocardiogram are recorded. Five minutes after injecting the product, the coronary ligature is tightened.
After 5 minutes of stenosis, the ligature is removed and the electrocardiogram as well as the blood pressure are recorded for 10 consecutive minutes. The delay in the appearance of the various rhythm disorders as well as the mortality are measured.

pig coronary artery = assay: Vascular contraction of pig coronary artery induced by acetylcholine; conditions: Sus scrofa, 10^-5 M, preincubated 15 minutes
Procedure: Studies are carried out on rings, 3 mm in length, - or of coronary arteries from pigs anesthetized with nesdonal (8 mg/kg intravenously). The vascular rings are immersed in a normal physiological solution or in a physiological solution lacking calcium (+0.2 mM of the chelating agent EGTA), which is thermostatically regulated at 37° C. and aerated with a 95% O2 +5% CO2 mixture. The rings are linked to a STATHAM tension sensor (UC2-GOULD). The optimal tension for each vessel is applied and a stabilization period of 90 min is observed for the preparations. a) Antivasoconstrictive activity of the compounds of the invention in a physiological medium.

rat aortas = assay: Contraction of rat aortas induced by potassium depolarization (hyperpotassium medium); design: species or system WISTAR rat; conditions: read-out: IC50 (concentration inhibiting by 50% the contraction of rat aortas induced by potassium depolarization)
Text: The rings are linked to a STATHAM tension sensor (UC2-GOULD).

rabbit aorta [4] = assay: Contraction of rabbit aorta induced by phorbol ester in a medium without calcium; design: species or system New Zealand rabbit; conditions: Oryctolagus cuniculus, 10^-5 M, medium lacking calcium
Procedure: as §1, with “b)” for “a)”, “medium without calcium.” for “physiological medium.”

[5] = test system: pressor effects of phenylephrine, angiotensin II and vasopressin; assay: Cardiovascular reactivity to vasopressors in wakeful rats, intravenous administration; format: in vivo, WISTAR rat; conditions: 10 mg/kg intravenously
Procedure: a) Effects of the compounds of the invention, administered intravenously, on cardiovascular reactivity to various vasopressors.
After a 30 to 60 min period of stabilization of wakeful WISTAR rats, a range of concentrations of phenylephrine (between 0 and 16 μg/kg) is injected intravenously.
Reading of the mean blood pressure and heart rate is carried out at the point where the pressor effect reaches its maximum. After a washing time of at least 2 hours, the test compound is administered intravenously (10 mg/kg) followed 15 minutes later by a new range of phenylephrine.
The same procedure is used to study the compounds of the invention for the pressor effects induced by angiotensin II (0 to 200 ng/kg) and vasopressin (0 to 200 ng/kg). These studies are carried out on different groups of animals.

Compound: CN(CC1CCN(CCCOc2ccc(F)cc2)CC1)S(=O)(=O)c1cccc2cnccc12.Cl.Cl [Example 17, N-Methyl-N-{[1-[3-(p-fluorophenoxy)propyl]-4-piperidyl]methyl}-5-isoquinolinesulfonamide dihydrochloride]
- reduction of the proliferation of smooth muscle cells [1]: 40%
- % contraction (guinea pig left auricle; 10 min): 201.5 ± 31.5%
- Contracture (%) (guinea pig left auricle; 15 min): 0%
- % contraction (guinea pig left auricle; 30 min): 186.5 ± 46%
- Contracture (%) (guinea pig left auricle; 30 min): 2.5 ± 2.5%
- % contraction (guinea pig left auricle; 60 min): 179 ± 44%
- Contracture (%) (guinea pig left auricle; 60 min): 5 ± 3.3%
- increase of the contraction relative to the control hearts (isolated heart): more than 100%
- IC50 (rabbit aorta [2]): 1500 nM
- inhibition at 10 µM (rabbit aorta [3]): 67%
- IC50 (rabbit mesenteric artery): 100 nM
- inhibition at 1 µM (rabbit aortas; compound 10^-6 M): 90%
- inhibition at 0.1 µM (rabbit aortas; compound 10^-7 M): 40%
- delay in the appearance of ventricular extrasystoles and tachycardias (reperfusion arrhythmias): very substantially delays the appearance of ventricular extrasystoles and tachycardias
- prevention of the appearance of ventricular fibrillations (reperfusion arrhythmias): 100%
- mortality rate (reperfusion arrhythmias; control 4 deaths out of 9): zero
- inhibition at 10 µM (pig coronary artery): 64%
- IC50 (rat aortas): 1500 nM
- inhibition at 10 µM (rabbit aorta [4]): 35%
- reduction of the pressure effect of phenylephrine [5]: 81%
